# Measured values from US12350273B2, “Treatment of SMA” (Hoffmann-La Roche Inc., priority 2017, dated 2025).
# Legend:
# [1] = tested on: retina; assay: 26 weeks of treatment in pigmented rats: retina; type: in vivo
# [2] = Stability of test item formulations; type: physicochemical; details: formulations 0.025 to 5 mg/mL, 2 to 8° C., absence of oxygen (under nitrogen)
# Description: The test item was formulated as a solution in 10 mM ascorbic acid/0.0064 mg/mL sodium thiosulfate at pH 3. The formulations were stored at 2 to 8° C. with absence of oxygen (under nitrogen), protected from the light in a sealed container. They were allowed to reach room temperature prior to dosing and were stirred on arrival at the animal room and then continuously throughout dosing.
# [3] = Study BP39055 Part 1: pharmacokinetics (AUC0-24h,ss) in SMA patients; type: in vivo, human; details: for AUC(0-t): human, in vivo, read-out: estimated AUC0-24h,ss, median
# Source text: Study BP39055 is a two-part operationally seamless, multi-center, randomized, placebo-controlled, double-blind study to investigate the safety, tolerability, pharmacokinetics (PK), pharmacodynamics (PD) and efficacy of RO7034067 in Type 2 and 3 spinal muscular atrophy (SMA) patients. The study consists of an exploratory dose-finding part (Part 1) and a confirmatory part (Part 2).
# The primary objective of Part 1 is to evaluate the safety, tolerability, PK and PD of RO7034067 in patients with Type 2 and Type 3 (ambulant or non-ambulant) SMA, and to select the dose for Part 2 of the study.
# Part 1 was a double-blinded, placebo-controlled, randomized (2:1 RO7034067:placebo), exploratory dose-finding study in Type 2 and Type 3 (ambulant and non-ambulant) SMA patients. This will be followed by an open-label extension (OLE) at the same dose as selected for Part 2 of the study.
# Part 1 of the study enrolled patients in two age groups: • Group A: adolescent and adult patients aged 12 25 years • Group B: children aged 2 11 years RO7034067 dose levels were investigated in a staggered, dose escalation manner in both age groups.
# The dose recommended by the IMC for this age group according to the target AUC0-24 h,ss of 700 ng[…]h/mL was 0.02 mg/kg (see IMC recommendation of 12 Dec. 2016 in Appendix 1); 10 patients aged 3-11 years were enrolled in Cohort B1. • At the same time point (i.e., once safety and tolerability were confirmed based on the review of at least 4 weeks of treatment at 3 mg once daily in 9 patients in Cohort A1), enrolment was opened to another cohort of 9 adult and adolescent patients (Cohort A2) receiving RO7034067 5 mg once daily (see IMC recommendation of 19 Jan. 2017 in Appendix 1). As per protocol, the higher dose level was determined such as to achieve maximum SMN protein increase, without exceeding the exposure cap (Cmax 400 ng/mL; mean AUC0 24 h,ss 2000 ng[…]h/mL); 10 patients aged 13[…]24 years were enrolled in Cohort A2. • Based on the review of a minimum of 4 weeks of treatment at 0.02 mg/kg in 9 patients enrolled in Cohort B1, the following recommendations were made by the IMC: i) to increase the dose in these patients to 0.05 mg/kg without exceeding a cap dose of 3 mg, and ii) to enroll a minimum of 9 additional patients aged 2[…]11 years at a dose of 0.05 mg/kg without exceeding a cap dose of 3 mg (Cohort B2), targeting at least 5 patients aged 2[…]6 years (see IMC recommendation of 13 Mar. […] At the same time point, enrollment was opened to another cohort of 9 patients at the dose of 0.25 mg/kg without exceeding a cap dose of 5 mg (Cohort B3), determined such as to achieve maximum Survival of Motor Neuron (SMN) protein increase, without exceeding the exposure cap (Cmax 400 ng/mL; mean AUC0-24 h,ss 2000 ng[…]h/mL); 10 patients aged 2[…]11 years were enrolled in Cohort B3. • Upon completion of at least 12 weeks of placebo-controlled treatment by a minimum of 9 patients of each cohort, the IMC reviewed all available data from the cohort to make the decision to switch placebo patients to active treatment at the dose tested in their respective cohort. Dates of the IMC decisions to switch placebo patients to active treatment in the respective cohorts are provided in Section 1.3. • For the last cohort in Part 1 (Cohort B3), all available safety, tolerability, PK and PD data following completion of a minimum of 4 weeks treatment by the 9th patient (including all available data for the 10th patient of the last cohort who was enrolled approximately 1 week after the 9th patient, and all available data from all previous cohorts) were reviewed by the IMC in order to select the dose to be administered in Part 2 of the study. This dose selection was confirmed by the external iDMC following review of the same data package. […]
# [4] = 39-week monkey toxicity study: retina effects (ERG, sdOCT, histopathology), NOAEL; details: cynomolgus monkey; for AUC(0-t): plasma
# [5] = tested on: retina; assay: as above; details: for ERG B-wave amplitude, left eye / ERG B-wave amplitude, right eye: Animal 0114 (female, 7.5/5 mg/kg/day)
smiles,measurement,setting,value
"Cc1cn2nc(-c3cc(=O)n4cc(N5CCNC6(CC6)C5)ccc4n3)cc(C)c2n1 [RO7034067, 7-(4,7-diazaspiro[2.5]octan-7-yl)-2-(2,8-dimethylimidazo[1,2-b]pyridazin-6-yl)pyrido[1,2-a]pyrimidin-4-one]",retinal effects,[1],no evidence for any retinal effects
same,time formulations were stable,[2],up to 4 weeks
same,AUC(0-t),"[3]; 2-11 yr, 0.02 mg/kg",133 ng·h/mL
same,AUC(0-t),"[3]; 2-11 yr, 0.05 mg/kg",407 ng·h/mL
same,AUC(0-t),"[3]; 2-11 yr, 0.15 mg/kg",822 ng·h/mL
same,AUC(0-t),"[3]; 2-11 yr, 0.25 mg/kg",1450 ng·h/mL
same,AUC(0-t),"[3]; 12-25 yr, 3 mg",1040 ng·h/mL
same,AUC(0-t),"[3]; 12-25 yr, 5 mg",1610 ng·h/mL
same,"predicted mean exposure (AUC0-24h,ss)","[3]; selected BP39055 Part 2 dose, all patients 2-25 years of age",1690 ng·h/mL
same,NOAEL at 39 weeks,"[4]; both, in vivo, po",1.5 mg/kg/day
same,AUC(0-t),[4]; oral,4260 ng·h/mL
same,AUC(0-t),"[4]; female, po, 3 mg/kg/day",4850 ng·h/mL
same,AUC(0-t),"[4]; female, po, 5 mg/kg/day",6470 ng·h/mL
same,AUC(0-t),"[4]; male, po, 3 mg/kg/day",4880 ng·h/mL
same,AUC(0-t),"[4]; male, po, 5 mg/kg/day",5880 ng·h/mL
same,animals noted with ERG deficits,[5]; 1.5 mg/kg/day,No animals
same,retinal appearance by sdOCT,[5]; 1.5 mg/kg/day,retained a normal retinal appearance
same,"AUC0-24h exposure free of retina effects (NOEL/NOAEL of the retina finding), females","[5]; 1.5 mg/kg/day, 39 weeks, females",2060 ng·h/mL
same,"AUC0-24h exposure free of retina effects (NOEL/NOAEL of the retina finding), males","[5]; 1.5 mg/kg/day, 39 weeks, males",1870 ng·h/mL
same,animals with adverse histopathologic degeneration in mid to peripheral retina,[5]; 3 mg/kg/day,one female
same,animals with adverse histopathologic degeneration in mid to peripheral retina,[5]; 7.5/5 mg/kg/day,two animals/sex
same,ERG finding in several animals,"[5]; 7.5/5 mg/kg/day, Week 20 of the dosing phase",markedly depressed scotopic and photopic ERGs
same,primary finding of 39-week administration,"[5]; 7.5/5 mg/kg/day, correlated with nonadverse epidermal hyperplasia",clinical signs in the skin
same,reversibility of retinal degeneration (histopathology),[5]; 22-week recovery period,not reversible during the recovery period
same,recovery of MMD and depressed ERG,[5]; 22-week recovery phase,almost fully recovered
same,"ERG B-wave amplitude, left eye",[5]; recovery Week 22,52.7 mcV
same,"ERG B-wave amplitude, right eye",[5]; recovery Week 22,43.4 mcV
same,"ERG B-wave amplitude, left eye",[5]; recovery week 8,33.5 mcV
same,"ERG B-wave amplitude, right eye",[5]; recovery week 8,34.1 mcV
same,lowest AUC0-24h exposure at the mid-dose with retina findings,[5]; animal No. 11,4540 ng·h/mL
same,lowest AUC0-24h exposure at the mid-dose with retina findings,[5]; animal No. 109,4560 ng·h/mL
same,lowest AUC0-24h exposure at the mid-dose with retina findings,[5]; animal No. 111,4560 ng·h/mL
same,animals with rod ERGs below the criteria,"[5]; females, 1 mg/kg/day, Week 34",Two
same,animals with depressed rod responses (ERG grading),"[5]; females, 3 mg/kg/day, Week 22",all three
same,animals with depressed rod responses (ERG grading),"[5]; females, 3 mg/kg/day, Week 27",none
same,animals with depressed rod responses (ERG grading),"[5]; females, 3 mg/kg/day, Week 35",1 of 3
same,animals with depressed rod responses (ERG grading),"[5]; females, 7.5/5 mg/kg/day, Week 20",4 of 5
same,animals with depressed rod responses (ERG grading),"[5]; females, 7.5/5 mg/kg/day, Week 26",2 of 5
same,animals with depressed rod responses (ERG grading),"[5]; females, 7.5/5 mg/kg/day, Week 34",4 of 5
same,individual AUC0-24h exposure free of effects on the retina,"[5]; individual animals, end of study",up to 2300 ng·h/mL
same,ERG finding,"[5]; intermediate and low dose groups (3.0 and 1.5 mg/kg/day), dosing phase",generally remained within expected limits
same,animals with rod response below the expected range,"[5]; males, 1 mg/kg/day",No males
same,animals with depressed rod responses (ERG grading),"[5]; males, 3 mg/kg/day, Week 22",1 of 3
same,animals with depressed rod responses (ERG grading),"[5]; males, 3 mg/kg/day, Week 26 or 35",none
same,sdOCT finding,"[5]; males, 3 mg/kg/day, Weeks 22, 27 and 35",minimal/mild retinal disorganization in the periphery
same,animals with depressed rod responses (ERG grading),"[5]; males, 7.5/5 mg/kg/day, Week 20",Four of five
same,animals with depressed rod responses (ERG grading),"[5]; males, 7.5/5 mg/kg/day, Week 26",2 of 5
same,animals with depressed rod responses (ERG grading),"[5]; males, 7.5/5 mg/kg/day, Week 34",5 of 5
